Measured values as given in patent publication US8871681B2, “Herbicidal compositions comprising 4-amino-3-chloro-5-fluoro-6-(4-chloro-2-fluoro-3-methoxyphenyl) pyridine-2-carboxylic acid or a derivative thereof and certain sulfonylureas” (Dow AgroSciences LLC, priority 2012, dated 2014).

Legend:
[1] = tested on: MATCH (Chamomilla chamomilla, scented mayweed); assay: Post-emergence foliar-applied weed control in cereal crops, greenhouse (Example III); type: in vivo, Chamomilla chamomilla (L.) Rydb.; settings: Table 59 (cereal), after 20-22 days, 2.2 gai/ha alone
Method: (§1) Seeds of the desired test plant species were planted in Sun Gro MetroMix® 306 planting mixture, which typically has a pH of 6.0 to 6.8 and an organic matter content of about 30 percent, in plastic pots with a surface area of 103.2 square centimeters (cm^2). When required to ensure good germination and healthy plants, a fungicide treatment and/or other chemical or physical treatment was applied. The plants were grown for 7-36 days in a greenhouse with an approximate 14 hour photoperiod which was maintained at about 18° C. during the day and 17° C. during the night. Nutrients and water were added on a regular basis and supplemental lighting was provided with overhead metal halide 1000-Watt lamps as necessary. The plants were employed for testing when they reached the second or third true leaf stage.
(§2) Treatments consisted of the benzyl ester of 4-amino-3-chloro-5-fluoro-6-(4-chloro-2-fluoro-3-methoxy-phenyl)pyridine-2-carboxylic acid (Compound A), formulated as an SC (suspension concentrate), and a second cereal herbicide alone and in combination.
(§3) Measured aliquot of benzyl ester of 4-amino-3-chloro-5-fluoro-6-(4-chloro-2-fluoro-3-methoxy-phenyl)pyridine-2-carboxylic acid (Compound A) was placed in 25 milliliter (mL) glass vials and diluted in a volume of 1.25% (v/v) Agri-dex crop oil concentrated to obtain stock solutions. Compound requirements are based upon a 12 mL application volume at a rate of 187 liters per hectare (L/ha). Spray solutions of the second cereal herbicide and experimental compound mixtures were prepared by adding the stock solutions to the appropriate amount of dilution solution to form 12 mL spray solution with active ingredients in two- and three-way combinations. Formulated compounds were applied to the plant material with an overhead Mandel track sprayer equipped with an 8002E nozzle calibrated to deliver 187 L/ha over an application area of 0.503 square meters (m^2) at a spray height of 18 inches (46 cm) above average plant canopy. Control plants were sprayed in the same manner with the solvent blank.
(§4) The treated plants and control plants were placed in a greenhouse as described above and watered by sub-irrigation to prevent wash-off of the test compounds. After 20-22 days, the condition of the test plants as compared with that of the control plants was determined visually and scored on a scale of 0 to 100 percent where 0 corresponds to no injury and 100 corresponds to complete kill.
(§5) Colby's equation was used to determine the herbicidal effects expected from the mixtures (Colby, S. R. 1967. Calculation of the synergistic and antagonistic response of herbicide combinations. Weeds 15:20-22.).
(§6) The following equation was used to calculate the expected activity of mixtures containing two active ingredients, A and B: Expected=A+B−(A×B/100)

[2] = tested on: CIRAR (Cirsium arvense, Canada thistle); assay: as above; type: in vivo, Cirsium arvense (L.) Scop.; settings: Cirsium arvense, post-emergence; Table 59 (cereal); foliar-applied; after 20-22 days; 2.2 gai/ha alone; read-out: Weed Control CIRAR Obs
Method: as §1, §2, §3, §4, §5, §6

[3] = tested on: ECHOR (Echinochloa oryzoides, early watergrass); assay: In-water applied weed control, transplanted paddy rice, greenhouse (Example II); type: in vivo, Echinochloa oryzoides (Ard.) Fritsch
Method: (§7) Weed seeds or nutlets of the desired test plant species were planted in puddled soil (mud) prepared by mixing a shredded, non-sterilized mineral soil (50.5 percent silt, 25.5 percent clay, and 24 percent sand, with a pH of about 7.6 and an organic matter content of about 2.9 percent) and water at a 1:1 volumetric ratio. The prepared mud was dispensed in 365 mL aliquots into 16-ounce (oz.) non-perforated plastic pots with a surface area of 86.59 square centimeters (cm^2) leaving a headspace of 3 centimeters (cm) in each pot. Rice seeds were planted in Sun Gro MetroMix® 306 planting mixture, which typically has a pH of 6.0 to 6.8 and an organic matter content of about 30 percent, in plastic plug trays. Seedlings at the second or third leaf stage of growth were transplanted into 860 mL of mud contained in 32-oz. non-perforated plastic pots with a surface area of 86.59 cm^2 4 days prior to herbicide application. The paddy was created by filling the headspace of the pots with 2.5 to 3 cm of water. When required to ensure good germination and healthy plants, a fungicide treatment and/or other chemical or physical treatment was applied. The plants were grown for 4-22 days in a greenhouse with an approximate 14 h photoperiod which was maintained at about 29′C during the day and 26° C. during the night. Nutrients were added as Osmocote® (19:6:12, N:P:K+minor nutrients) at 2 g per 16-oz. pot and 4 g per 32-oz. pot. Water was added on a regular basis to maintain the paddy flood, and supplemental lighting was provided with overhead metal halide 1000-Watt lamps as necessary. The plants were employed for testing when they reached the first through fourth true leaf stage.
(§8) Treatments consisted of the acid or esters of 4-amino-3-chloro-5-fluoro-6-(4-chloro-2-fluoro-3-methoxy-phenyl)pyridine-2-carboxylic acid (compound A) each formulated as an SC and various herbicidal components alone and in combination. Forms of compound A were applied on an acid equivalent basis.
(§9) Other herbicidal components were applied on an active ingredient basis and included acetolactate synthase (ALS)-inhibiting herbicides (sulfonylurea chemical class), azimsulfuron formulated as Gulliver®, bensulfuron-methyl formulated as Londax® 60DF, cyclosulfamuron (technical grade materail), ethoxysulfuron formulated as Sunrice® 15 WDG, flucetosulfuron formulated as Sukedachi® 1KG G, imazosulfuron formulated as Brazzos®, metsulfuron-methyl formulated as Lorate®, nicosulfuron formulated as Accent®, orthosulfamuron formulated as Strada® WG, propyrisulfuron formulated as Zeta One®, and rimsulfuron formulated as Matrix® WG.
(§10) Treatment requirements for each compound or herbicidal component were calculated based upon the rates being tested, the concentration of active ingredient or acid equivalent in the formulation, an application volume of 2 mL per component per pot, and an application area of 86.59 cm^2 per pot.
(§11) For formulated compounds, a measured amount was placed in an individual 100 or 200 mL glass vial and was dissolved in a volume of 1.25% (v/v) Agri-Dex® crop oil concentrate to obtain application solutions.
(§12) For technical grade compounds, a weighed amount was placed in an individual 100 to 200 mL glass vial and was dissolved in a volume of acetone to obtain concentrated stock solutions. […] The concentrated stock solutions obtained were diluted with an equivalent volume of an aqueous mixture containing 2.5% (v/v) crop oil concentrate so that the final application solutions contained 1.25% (v/v) crop oil concentrate.
(§13) Applications were made by injecting with a pipetter appropriate amounts of the application solutions, individually and sequentially, into the aqueous layer of the paddy. Control plants were treated in the same manner with the solvent blank. Applications were made so that all treated plant material received the same concentrations of acetone and crop oil concentrate. […]

[4] = tested on: SCPMA (Bolboschoenus maritimus or Schoenoplectus maritimus, sea clubrush); assay: as above; type: in vivo, Bolboschoenus maritimus (L.) Palla
Method: as §7, §8, §9, §10, §11, §12, §13

[5] = tested on: ECHCG (Echinochloa crusgalli, barnyardgrass); assay: Postemergence foliar-applied weed control, direct seeded rice, greenhouse (Example I); type: in vivo, Echinochloa crusgalli (L.) Beauv.; settings: 27 DAA
Excerpt: (§14) Seeds or nutlets of the desired test plant species were planted in a soil matrix prepared by mixing a loam or sandy loam soil (e.g., 28.6 percent silt, 18.8 percent clay, and 52.6 percent sand, with a pH of about 5.8 and an organic matter content of about 1.8 percent) and calcareous grit in an 80 to 20 ratio. The soil matrix was contained in plastic pots with a volume of 1 quart and a surface area of 83.6 square centimeters (cm^2). When required to ensure good germination and healthy plants, a fungicide treatment and/or other chemical or physical treatment was applied. The plants were grown for 8-22 days in a greenhouse with an approximate 14 h photoperiod which was maintained at about 29° C. during the day and 26° C. during the night. Nutrients (Peters Excel® 15-5-15 5-Ca 2-Mg and iron chelate) were applied in the irrigation solution as needed and water was added on a regular basis. Supplemental lighting was provided with overhead metal halide 1000-Watt lamps as necessary. The plants were employed for testing when they reached the first through fourth true leaf stage.
(§15) Treatments consisted of the acid or esters of 4-amino-3-chloro-5-fluoro-6-(4-chloro-2-fluoro-3-methoxy-phenyl)pyridine-2-carboxylic acid (Compound A), each formulated as an SC, and various herbicidal components alone and in combination. Forms of compound A were applied on an acid equivalent basis.
(§16) Other herbicidal components were applied on an active ingredient basis and included acetolactate synthase (ALS)-inhibiting herbicides (sulfonylurea chemical class) azimsulfuron formulated as Gulliver®, bensulfuron-methyl formulated as Londax® 60DF, cyclosulfamuron (technical material), ethoxysulfuron formulated as Sunrice® 15 WDG, flazasulfuron formulated as Katana®, flucetosulfuron formulated as Sukedachi® 1KG G, foramsulfuron formulated as Option®, imazosulfuron formulated as Brazzos® WG, iodosulfuron-methyl-sodium formulated as Hussar®, metsulfuron-methyl formulated as Lorate®, nicosulfuron formulated as Accent®, orthosulfamuron formulated as Strada® WG, primisulfuron-methyl (technical material), propyrisulfuron formulated as Zeta One®, rimsulfuron formulated as Matrix® WG, sulfometuron-methyl formulated as Oust®, and trifloxysulfuron-sodium formulated as Monument® 75WG.
(§17) Treatment requirements were calculated based upon the rates being tested, the concentration of active ingredient or acid equivalent in the formulation, and a 12 mL application volume at a rate of 187 L/ha.
(§18) For treatments comprised of formulated compounds, measured amounts of compounds were placed individually in 25 mL glass vials and diluted in a volume of 1.25% (v/v) Agri-Dex® crop oil concentrated to obtain 12× stock solutions. […] Application solutions were prepared by adding an appropriate amount of each stock solution (e.g., 1 mL) and diluted to the appropriate final concentrations with the addition of 10 mL of an aqueous mixture of 1.25% (v/v) crop oil concentrate so that the final spray solutions contained 1.25+/−0.05% (v/v) Agrcrop oil concentrate.
(§19) For treatments comprised of formulated and technical compounds, weighed amounts of the technical materials were placed individually in 25 mL glass vials and dissolved in a volume of 97:3 v/v acetone/DMSO to obtain 12× stock solutions, and measured amounts of the formulated compounds were placed individually in 25 mL glass vials and diluted in a volume of 1.25% (v/v) crop oil concentrate to obtain 12× stock solutions. […] Application solutions were prepared by adding an appropriate amount of each stock solution (e.g., 1 mL) and diluted to the appropriate final concentrations with the addition of an appropriate amount of an aqueous mixture of 1.5% (v/v) crop oil concentrate so that the final spray solutions contained 1.25% (v/v) crop oil concentrate. […]

[6] = tested on: BRAPP (Brachiaria platyphylla, broadleaf signalgrass); assay: as above; type: in vivo, Brachiaria platyphylla (Griseb.) Nash; settings: Urochloa platyphylla, post-emergence, 504 h, read-out: Visual Weed Control (%) Obs, 21 DAA
Excerpt: as §14, §15, §16, §17, §18, §19

| Structure (SMILES) | Weed Control MATCH Obs [1] [%] | pest or weed control at 2.2 g/ha [2] [%] | Visual Weed Control (%) - 20 DAA ECHOR Obs ([3]; Table 30, 35 gae/ha alone) [%] | Visual Weed Control (%) - 20 DAA ECHOR Obs ([3]; Table 30, 70 gae/ha alone) [%] | Visual Weed Control (%) - 20 DAA SCPMA Obs ([4]; Table 40, 35 gae/ha alone) [%] | Visual Weed Control (%) - 20 DAA SCPMA Obs ([4]; Table 40, 70 gae/ha alone) [%] | Visual Weed Control (%) Obs ([5]; 4.38 gae/ha) [%] | Visual Weed Control (%) Obs ([5]; 8.75 gae/ha) [%] | pest or weed control at 4.38 g/ha ([6]; 4.38 gae/ha) [%] | pest or weed control at 8.75 g/ha ([6]; 8.75 gae/ha) [%] |
| --- | --- | --- | --- | --- | --- | --- | --- | --- | --- | --- |
| COC(=O)c1ccccc1S(=O)(=O)NC(=O)N(C)c1nc(C)nc(OC)n1 [Tribenuron-methyl] | 90 | 50 | – | – | – | – | – | – | – | – |
| CCCCOC(=O)c1nc(-c2ccc(Cl)c(OC)c2F)c(F)c(N)c1Cl [Compound A n-Butyl Ester] | – | – | 28 | 45 | 0 | 0 | 0 | 0 | 0 | 40 |
